US20180265515A1 (Genentech, Inc., priority 2015, published 2018)

Legend:
[1] = target: T1, isolated recombinant JAK2 kinase domain (Homo sapiens, UniProt O60674); assay: JAK2 enzyme assay (Caliper LabChip, Ki); assay type: biochemical; settings: 25 μM ATP
T1 construct: The activity of the isolated recombinant JAK1 and JAK2 kinase domain was measured
Procedure: (§1) JAK Enzyme Assays were Carried Out as Follows:
(§2) The activity of the isolated recombinant JAK1 and JAK2 kinase domain was measured by monitoring phosphorylation of a peptide derived from JAK3 (Val-Ala-Leu-Val-Asp-Gly-Tyr-Phe-Arg-Leu-Thr-Thr, fluorescently labeled on the N-terminus with 5-carboxyfluorescein) using the Caliper LabChip® technology (Caliper Life Sciences, Hopkinton, Mass.). […] Reactions were incubated at 22° C. in 384-well polypropylene microtiter plates for 30 minutes and then stopped by addition of 25 μL of an EDTA containing solution (100 mM HEPES buffer (pH 7.2), 0.015% Brij-35, 150 mM EDTA), resulting in a final EDTA concentration of 50 mM. After termination of the kinase reaction, the proportion of phosphorylated product was determined as a fraction of total peptide substrate using the Caliper LabChip® 3000 according to the manufacturer's specifications. Ki values were then determined using the Morrison tight binding model (Morrison, J. F., Biochim. Biophys. Acta. 185:269-296 (1969); William, J. W. and Morrison, J. F., Meth. Enzymol., 63:437-467 (1979)) modified for ATP-competitive inhibition [Ki=Ki,app/(1+[ATP]/Km,app)].

[2] = tested on: JAK1-dependent STAT6 phosphorylation downstream of IL-13 stimulation in BEAS-2B human bronchial epithelial cells; assay: JAK1 pathway assay in BEAS-2B cells (IL-13 stimulated STAT6 phosphorylation, MSD); assay type: cell-based; settings: read-out: P-STAT6 BEAS2B + IL13 IC50
Procedure: JAK1 Pathway Assay in Cell Lines was Carried Out as Follows:
Inhibitor potency (EC50) was determined in cell-based assays designed to measure JAK1 dependent STAT phosphorylation. As noted above, inhibition of IL-4, IL-13, and IL-9 signaling by blocking the Jak/Stat signaling pathway can alleviate asthmatic symptoms in pre-clinical lung inflammation models (Mathew et al., 2001, J Exp Med 193(9): 1087-1096; Kudlacz et. al., 2008, Eur J. Pharmacol 582(1-3): 154-161).
In one assay approach, TF-1 human erythroleukemia cells obtained from the American Type Culture Collection (ATCC; Manassas, Va.) were used to measure JAK1-dependent STAT6 phosphorylation downstream of IL-13 stimulation. Prior to use in the assays, TF-1 cells were starved of GM-CSF overnight in OptiMEM medium (Life Technologies, Grand Island, N.Y.) supplemented with 0.5% charcoal/dextran stripped fetal bovine serum (FBS), 0.1 mM non-essential amino acids (NEAA), and 1 mM sodium pyruvate. The assays were run in 384-well plates in serum-free OptiMEM medium using 300,000 cells per well. In a second assay approach, BEAS-2B human bronchial epithelial cells obtained from ATCC were plated at 100,000 cells per well of a 96-well plate one day prior to the experiment. The BEAS-2B assay was run in complete growth medium (bronchial epithelial basal medium plus bulletkit; Lonza; Basel, Switzerland).
Test compounds were serially diluted 1:2 in DMSO and then diluted 1:50 in medium just before use. Diluted compounds were added to the cells, for a final DMSO concentration of 0.2%, and incubated for 30 min (for the TF-1 assay) or 1 hr (for the BEAS-2B assay) at 37° C. Then, cells were stimulated with human recombinant cytokine at their respective EC90 concentrations, as previously determined for each individual lot. Cells were stimulated with IL-13 (R&D Systems, Minneapolis, Minn.) for 15 min at 37° C. The TF-1 cell reactions were stopped by the direct addition of 10× lysis buffer (Cell Signaling Technologies, Danvers, Mass.), whereas the BEAS-2B cell incubations were halted by the removal of medium and addition of 1× lysis buffer. The resultant samples were frozen in the plates at −80° C. Compound mediated inhibition of STAT6 phosphorylation was measured in the cell lysates using MesoScale Discovery (MSD) technology (Gaithersburg, Md.). EC50 values were determined as the concentration of compound required for 50% inhibition of STAT phosphorylation relative to that measured for the DMSO control.

[3] = target: T2, isolated recombinant JAK1 kinase domain (Homo sapiens, UniProt P23458); assay: JAK1 enzyme assay (Caliper LabChip, Ki); assay type: biochemical; settings: recombinant JAK1 kinase domain, 25 μM ATP
T2 construct: The activity of the isolated recombinant JAK1 and JAK2 kinase domain was measured
T2 sequence (P23458 875-1153 limits assumed): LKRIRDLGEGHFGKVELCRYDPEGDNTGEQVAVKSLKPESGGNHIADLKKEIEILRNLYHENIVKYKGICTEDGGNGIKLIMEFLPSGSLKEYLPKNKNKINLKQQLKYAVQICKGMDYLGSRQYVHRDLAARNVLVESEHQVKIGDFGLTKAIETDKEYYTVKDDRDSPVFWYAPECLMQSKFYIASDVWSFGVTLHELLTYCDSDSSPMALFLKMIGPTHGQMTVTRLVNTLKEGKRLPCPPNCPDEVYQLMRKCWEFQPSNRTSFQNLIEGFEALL
Procedure: as §1, §2

T1 sequence (O60674 849-1124 limits assumed): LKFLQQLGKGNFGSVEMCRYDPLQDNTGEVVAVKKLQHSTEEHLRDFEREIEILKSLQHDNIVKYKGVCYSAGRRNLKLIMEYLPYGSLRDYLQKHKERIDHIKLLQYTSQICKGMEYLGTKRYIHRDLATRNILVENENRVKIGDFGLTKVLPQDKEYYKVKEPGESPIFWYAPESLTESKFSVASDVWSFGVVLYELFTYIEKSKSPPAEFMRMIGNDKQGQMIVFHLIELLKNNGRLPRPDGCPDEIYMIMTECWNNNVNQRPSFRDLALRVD

Row | SMILES | Ki [1] | Ki [3] | IC50 [2]
1 | CSc1ccc(OC(F)F)c(-c2nn(CC(=O)N3CCC(N4CCn5cncc5C4)CC3)cc2NC(=O)c2cnn3cccnc23)c1 [Example 72, N-[3-[2-(difluoromethoxy)-5-methylsulfanyl-phenyl]-1-[2-[4-(6,8-dihydro-5H-imidazo[1,5-a]pyrazin-7-yl)-1-piperidyl]-2-oxo-ethyl]pyrazol-4-yl]pyrazolo[1,5-a]pyrimidine-3-carboxamide] | 0.36 nM | 0.4 nM | 110 nM
2 | CSc1ccc(OC(F)F)c(-c2nn(C3(CC#N)CN(C)C3)cc2NC(=O)c2cnn3cccnc23)c1 [Example 76, N-(1-(3-(cyanomethyl)-1-methylazetidin-3-yl)-3-(2-(difluoromethoxy)-5-(methylthio)phenyl)-1H-pyrazol-4-yl)pyrazolo[1,5-a]pyrimidine-3-carboxamide] | 1 nM | 1.4 nM | 60 nM
3 | O=C(Nc1cn(CCN[C@H]2C[C@H](O)C2)nc1-c1cc(SC2COC2)ccc1OC(F)F)c1cnn2cccnc12 [Example 179, N-[3-[2-(difluoromethoxy)-5-(oxetan-3-ylsulfanyl)phenyl]-1-(2-[[trans-3-hydroxycyclobutyl]amino]ethyl)-1H-pyrazol-4-yl]pyrazolo[1,5-a]pyrimidine-3-carboxamide] | 0.59 nM | 0.74 nM | 26 nM
4 | CC(C)Sc1ccc(OC(F)F)c(-c2nn(CC(=O)N3CCN(C4CCSCC4)CC3)cc2NC(=O)c2cnn3cccnc23)c1 [Example 119, N-[3-[2-(difluoromethoxy)-5-isopropylsulfanyl-phenyl]-1-[2-oxo-2-(4-tetrahydrothiopyran-4-ylpiperazin-1-yl)ethyl]pyrazol-4-yl]pyrazolo[1,5-a]pyrimidine-3-carboxamide] | 0.96 nM | 0.47 nM | 30 nM
5 | CN1CCN(C2CCN(C(=O)Cn3cc(NC(=O)c4cnn5cccnc45)c(-c4cc(SC5CC5)ccc4OC(F)F)n3)CC2)CC1 [Example 164, N-[3-[5-cyclopropylsulfanyl-2-(difluoromethoxy)phenyl]-1-[2-[4-(4-methylpiperazin-1-yl)-1-piperidyl]-2-oxo-ethyl]pyrazol-4-yl]pyrazolo[1,5-a]pyrimidine-3-carboxamide] | 1.5 nM | 0.55 nM | 32 nM
6 | CC(C)Sc1ccc(OC(F)F)c(-c2nn(CC(=O)N3CCC(CN4CCOCC4)CC3)cc2NC(=O)c2cnn3cccnc23)c1 [Example 136, N-[3-[2-(difluoromethoxy)-5-isopropylsulfanyl-phenyl]-1-[2-[4-(morpholinomethyl)-1-piperidyl]-2-oxo-ethyl]pyrazol-4-yl]pyrazolo[1,5-a]pyrimidine-3-carboxamide] | 1.2 nM | 0.49 nM | 20 nM
7 | CSc1ccc(OC(F)F)c(-c2nn(CC(=O)N3CCC(N4CCn5nccc5C4)CC3)cc2NC(=O)c2cnn3cccnc23)c1 [Example 79, N-[3-[2-(difluoromethoxy)-5-methylsulfanyl-phenyl]-1-[2-[4-(6,7-dihydro-4H-pyrazolo[1,5-a]pyrazin-5-yl)-1-piperidyl]-2-oxo-ethyl]pyrazol-4-yl]pyrazolo[1,5-a]pyrimidine-3-carboxamide] | 0.44 nM | 0.39 nM | 35 nM
8 | CC(C)Sc1ccc(OC(F)F)c(-c2nn(CC(=O)N3CCN(CC4CCOCC4)CC3)cc2NC(=O)c2cnn3cccnc23)c1 [Example 135, N-[3-[2-(difluoromethoxy)-5-isopropylsulfanyl-phenyl]-1-[2-oxo-2-[4-(tetrahydropyran-4-ylmethyl)piperazin-1-yl]ethyl]pyrazol-4-yl]pyrazolo[1,5-a]pyrimidine-3-carboxamide] | 0.87 nM | 0.43 nM | 24 nM
9 | CC(C)Sc1ccc(OC(F)F)c(-c2nn(CC(=O)N3CCC(N4CCN(C)CC4)CC3)cc2NC(=O)c2cnn3cccnc23)c1 [Example 118, N-[3-[2-(difluoromethoxy)-5-isopropylsulfanyl-phenyl]-1-[2-[4-(4-methylpiperazin-1-yl)-1-piperidyl]-2-oxo-ethyl]pyrazol-4-yl]pyrazolo[1,5-a]pyrimidine-3-carboxamide] | 1.8 nM | 0.6 nM | 40 nM

More lines, main results first:

Row | Ki [1] | Ki [3] | SMILES | IC50 [2]
10 | 0.52 nM | 0.31 nM | CSc1ccc(OC(F)F)c(-c2nn(CC(=O)N3CCC(N(C)[C@@H]4CCOC4)CC3)cc2NC(=O)c2cnn3cccnc23)c1 [Example 60, N-[3-[2-(difluoromethoxy)-5-methylsulfanyl-phenyl]-1-[2-[4-[methyl-[(3R)-tetrahydrofuran-3-yl]amino]-1-piperidyl]-2-oxo-ethyl]pyrazol-4-yl]pyrazolo[1,5-a]pyrimidine-3-carboxamide] | 14 nM
11 | 0.99 nM | 0.42 nM | CC(C)Sc1ccc(OC(F)F)c(-c2nn(CC(=O)N3CCC(N4CC(C#N)C4)CC3)cc2NC(=O)c2cnn3cccnc23)c1 [Example 129, N-(1-[2-[4-(3-cyanoazetidin-1-yl)piperidin-1-yl]-2-oxoethyl]-3-[2-(difluoromethoxy)-5-(propan-2-ylsulfanyl)phenyl]-1H-pyrazol-4-yl)pyrazolo[1,5-a]pyrimidine-3-carboxamide] | 26 nM
12 | 0.77 nM | 0.61 nM | CSc1ccc(OC(F)F)c(-c2nn(CC(=O)N3CCC(N(CCN4CCOCC4)C4COC4)CC3)cc2NC(=O)c2cnn3cccnc23)c1 [Example 92, N-[3-[2-(difluoromethoxy)-5-methylsulfanyl-phenyl]-1-[2-[4-[2-morpholinoethyl(oxetan-3-yl)amino]-1-piperidyl]-2-oxo-ethyl]pyrazol-4-yl]pyrazolo[1,5-a]pyrimidine-3-carboxamide] | 1000 nM
13 | 0.33 nM | 0.27 nM | CSc1ccc(OC(F)F)c(-c2nn(CC(=O)N3CCN(CCCC#N)CC3)cc2NC(=O)c2cnn3cccnc23)c1 [Example 21, N-[1-[2-[4-(3-cyanopropyl)piperazin-1-yl]-2-oxo-ethyl]-3-[2-(difluoromethoxy)-5-methylsulfanyl-phenyl]pyrazol-4-yl]pyrazolo[1,5-a]pyrimidine-3-carboxamide] | 9.1 nM
14 | 0.53 nM | 0.27 nM | CSc1ccc(OC(F)F)c(-c2nn(CC(=O)N3CCC(N(C)CCCC#N)CC3)cc2NC(=O)c2cnn3cccnc23)c1 [Example 17, N-[1-[2-[4-[3-cyanopropyl(methyl)amino]-1-piperidyl]-2-oxo-ethyl]-3-[2-(difluoromethoxy)-5-methylsulfanyl-phenyl]pyrazol-4-yl]pyrazolo[1,5-a]pyrimidine-3-carboxamide] | 5 nM
15 | 0.61 nM | 0.49 nM | CCN1CCN(C(=O)Cn2cc(NC(=O)c3cnn4cccnc34)c(-c3cc(SC)ccc3OC(F)F)n2)CC1 [Example 6, N-[3-[2-(difluoromethoxy)-5-methylsulfanyl-phenyl]-1-[2-(4-ethylpiperazin-1-yl)-2-oxo-ethyl]pyrazol-4-yl]pyrazolo[1,5-a]pyrimidine-3-carboxamide] | 18 nM
16 | 0.68 nM | 0.37 nM | CSc1ccc(OC(F)F)c(-c2nn(CC(=O)N3CCC(CN4CCNCC4)CC3)cc2NC(=O)c2cnn3cccnc23)c1 [Example 95, N-[3-[2-(difluoromethoxy)-5-methylsulfanyl-phenyl]-1-[2-oxo-2-[4-(piperazin-1-ylmethyl)-1-piperidyl]ethyl]pyrazol-4-yl]pyrazolo[1,5-a]pyrimidine-3-carboxamide] | 150 nM
